According to patent US20190054038A1, “NITRIC OXIDE GENERATING FORMULATIONS AND KITS” (THE REGENTS OF THE UNIVERSITY OF MICHIGAN, priority 2016, published 2019):

Key:
[1] = NO release kinetics of solutions by chemiluminescence (nitric oxide analyzer); format: physicochemical
Protocol: The NO release profile of the two solutions was measured via chemiluminescence detection at 37° C., and the results are shown in FIG. 3. As depicted, both solutions continuously generated NO for more than 7 hours, and the solution containing the higher concentration of GSNO generated higher levels of NO.
As depicted, the inclusion of ascorbate provided an enhanced NO release profile, with all of the NO release within a 2-3 hour window.
The NO release rate of some of the solution formulations was measured by chemiluminescent nitric oxide analyzer (NOA) at room temperature and at 37° C. in an amber NOA cell, while purging with 50 mL/min nitrogen through a glass pipette. The solution formulations were freshly prepared (initial data) (i.e., the dry powder nasal formulation was dissolved in 10 mL of saline solution (NaCl and NaHCO3 in water) immediately before measurements), or were prepared from stored dry power aliquots that were freshly dissolved in 10 mL of saline solution (NaCl and NaHCO3 in water) immediately before measurements. The NO release rate was tested for one or more of the following time periods: 0 (freshly prepared), 1 month, 2 months, 4 months, and 6 months.
The NOA was a Sievers NOA. Studying the release kinetics included analyzing the overall shape of the transient curve, half-life, and total NO released compared to theoretical GSNO content (%). Primarily, the shape of the graph was considered most qualitative, as different machines yield different PPB/mL values due to differing constants. If necessary, the GSNO quantification in each formulation was tested by a copper/cysteine method to release all of the NO from the GSNO very rapidly.

[2] = system: S. aureus biofilm on CF airway epithelial cells; test: Killing of S. aureus biofilm on CF airway epithelial cell cultures (bacterial density by plating lysates); format: cell-based; details: 1.25 mM, 4 hours
Protocol: Progenitor (basal) airway epithelial cells isolated from cystic fibrosis patients were cultured at air/liquid interface to promote mucociliary differentiation resembling airway epithelium in vivo. These cultures will be referred to herein as CF airway epithleial cells.
Apical surface of the CF airway epithelial cells was washed with PBS, infected apically with 10 μl of S. aureus (1×10^5 CFU/well or at 0.01 multiplication of infection), and incubated for 24 hours. […] The basolateral medium was changed, the apical surface was washed with saline once, and then 30 μl of PBS containing various concentrations of GSNO/Asc (i.e., 0 mM, 0.3 mM, 0.625 mM, 1.25 mM, 2.5 mM, and 5 mM) was added to the apical surface and incubated for 4 hours. The apical surface was washed once with 0.2 ml of 0.15% bicarbonate in PBS. […] Cells were lysed in 1% Triton X-100 and serial dilutions of cell lysates were plated to determine the bacterial density (FIG. 17A).
Apical surface of CF airway epithelial cells was washed with PBS, infected apically with 10 μl of S. aureus (2×10^6 CFU/well), and incubated for 24 hours. The basolateral medium was changed, the apical surface was washed with saline once and treated apically with 30 μl of PBS, or saline containing 1.25 mM GSNO/Asc, or saline containing 50 μg of gentamicin, or saline containing a mixture of 1.25 mM GSNO/Asc and 50 μg of gentamicin. […]

[3] = Stability of dry powder formulations by UV/Vis (GSNO absorbance at 334 nm); format: physicochemical
Protocol: Some of the formulations also included ethylenediamintetraacetic acid (EDTA) and/or saline salts (NaCl and NaHCO3). The constituents were mixed as dry powders and were stored in 4 mL amber vials either in the freezer (−18° C.), at 4° C., at room temperature (RT, from about 20° C. to about 25° C.), or at 37° C. The stability of some of the dry powder formulations was tested via UV/Vis analysis and/or via the Sievers nitric oxide (NO) analyzer (as previously described). For the UV/Vis analysis, at each time interval (0 (freshly prepared), 1 month, 2 months, 4 months, and 6 months), three samples (3-5 mg each) from the dry powder formulations (at each temperature, resulting in 12 vials per formulation) were put into 4 mL amber vials. The respective formulations were then diluted in 4 mL PBS+0.1 mM EDTA (PB SE) solution and mixed for 30 seconds, and 1 mL of the diluted formulation was injected into 3 mL PBSE in a disposable UV/VIS cuvette. The absorbance spectrum was measured typically between 300-600 nm after measuring the PBSE spectrum as blank. GSNO was quantified by absorbance measured at 334 nm. These values were then compared to a calculated value of the percentage of initial or theoretical GSNO content of each formulation.

Compound: O=C(O)CN(CCN(CC(=O)O)CC(=O)O)CC(=O)O [EDTA, ethylenediaminetetraacetic acid]
- EDTA stability in stored dry powder formulation ([1]; NO release patterns, fresh vs stored several months): stable

Compound: O=C1O[C@H]([C@@H](O)CO)C(O)=C1O [ascorbic acid, L-ascorbic acid, reference compound]
- change in bacterial density [2]: no significant changes in bacterial density
- ascorbic acid stability in stored dry powder formulation ([3]; UV/Vis of GSNO mixed with ascorbic acid, fresh vs stored several months): relatively stable

Compound: N[C@@H](CCC(=O)N[C@@H](CSN=O)C(=O)NCC(=O)O)C(=O)O [GSNO, S-nitrosoglutathione]
- time of continuous NO generation ([1]; 10 μM and 25 μM GSNO in phosphate buffered saline pH 7.4, 37° C., no additive): more than 7 hours
- amount of NO release versus GSNO concentration ([1]; GSNO 1-100 μM in saline): directly related to the GSNO concentration
- time of peak NO release ([1]; GSNO 1-100 μM in saline, without any additive): 5 to 6 h
- % of initial GSNO remaining ([3]; dry powder stored at 37° C., after 6 months): 67%
- stability of dry powder over six months (UV/VIS) ([3]; stored at −18° C., 4° C., room temperature, 37° C.): no significant decrease in the stability

Compound: N[C@@H](CCC(=O)N[C@@H](CS)C(=O)NCC(=O)O)C(=O)O [GSH, reduced L-glutathione]
- change in bacterial density [2]: no significant changes in bacterial density
